Laboratory results: patent US20240208956A1, “1,3,4-OXADIAZOLE THIOCARBONYL COMPOUNDS AS HISTONE DEACETYLASE 6 INHIBITOR, AND PHARMACEUTICAL COMPOSITION COMPRISING THE SAME” (CHONG KUN DANG PHARMACEUTICAL CORP., priority 2021, published 2024)

Tests used:
HDAC1 = HDAC1 (Homo sapiens (Human), UniProt Q13547); experiment: HDAC enzyme activity inhibition (in vitro), HDAC1 Fluorimetric Drug Discovery Assay Kit; assay type: biochemical; settings: samples at 100, 1000 and 10000 nM; 37° C. 60 minutes; fluorescence Ex 390 nm, Em 460 nm
Chain of HDAC1 (Q13547 whole entry): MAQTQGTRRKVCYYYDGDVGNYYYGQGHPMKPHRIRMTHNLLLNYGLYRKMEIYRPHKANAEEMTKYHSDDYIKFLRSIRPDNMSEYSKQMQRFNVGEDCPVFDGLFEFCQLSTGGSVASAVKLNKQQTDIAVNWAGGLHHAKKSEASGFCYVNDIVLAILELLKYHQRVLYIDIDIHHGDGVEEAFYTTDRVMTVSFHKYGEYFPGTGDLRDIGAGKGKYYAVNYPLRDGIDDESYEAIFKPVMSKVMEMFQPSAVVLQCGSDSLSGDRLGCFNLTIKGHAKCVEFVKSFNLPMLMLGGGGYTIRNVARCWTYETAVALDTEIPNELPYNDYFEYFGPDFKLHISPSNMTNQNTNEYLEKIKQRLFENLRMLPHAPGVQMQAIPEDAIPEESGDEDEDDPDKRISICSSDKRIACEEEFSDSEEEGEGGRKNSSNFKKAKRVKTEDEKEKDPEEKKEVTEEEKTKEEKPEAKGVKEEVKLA
Experimental: Experimental Example 1. Confirmation of HDAC Enzyme Activity Inhibition (In Vitro)
(§1) An HDAC enzyme inhibitory capacity of test material was measured by using HDAC1 Fluorimetric Drug Discovery Assay Kit (Enzolifesciences: BML-AK511) and HDAC6 human recombinant (Calbiochem: 382180). For a HDAC1 assay, samples were treated at a concentration of 100 nM, 1000 nM and 10000 nM. For an HDAC6 assay, samples were treated at a concentration of 0.1 nM, 1 nM, 10 nM, 100 nM and 1000 nM. After the sample treatment, a reaction was continued at 37° C. for 60 minutes, treated with a developer, and subjected to reaction at 37° C. for 30 minutes, after which fluorescence intensity (Ex 390 nm, Em 460 nm) was measured by using FlexStation3 (Molecular device). For final result values, each […] value was calculated with GraphPad Prism 4.0 program.

HDAC6 human recombinant = HDAC6 human recombinant (Homo sapiens (Human), UniProt Q9UBN7); experiment: HDAC enzyme activity inhibition (in vitro), HDAC6 fluorimetric assay; assay type: biochemical; settings: samples at 0.1-1000 nM; 37° C. 60 minutes; fluorescence Ex 390 nm, Em 460 nm
Chain of HDAC6 human recombinant (Q9UBN7 whole entry): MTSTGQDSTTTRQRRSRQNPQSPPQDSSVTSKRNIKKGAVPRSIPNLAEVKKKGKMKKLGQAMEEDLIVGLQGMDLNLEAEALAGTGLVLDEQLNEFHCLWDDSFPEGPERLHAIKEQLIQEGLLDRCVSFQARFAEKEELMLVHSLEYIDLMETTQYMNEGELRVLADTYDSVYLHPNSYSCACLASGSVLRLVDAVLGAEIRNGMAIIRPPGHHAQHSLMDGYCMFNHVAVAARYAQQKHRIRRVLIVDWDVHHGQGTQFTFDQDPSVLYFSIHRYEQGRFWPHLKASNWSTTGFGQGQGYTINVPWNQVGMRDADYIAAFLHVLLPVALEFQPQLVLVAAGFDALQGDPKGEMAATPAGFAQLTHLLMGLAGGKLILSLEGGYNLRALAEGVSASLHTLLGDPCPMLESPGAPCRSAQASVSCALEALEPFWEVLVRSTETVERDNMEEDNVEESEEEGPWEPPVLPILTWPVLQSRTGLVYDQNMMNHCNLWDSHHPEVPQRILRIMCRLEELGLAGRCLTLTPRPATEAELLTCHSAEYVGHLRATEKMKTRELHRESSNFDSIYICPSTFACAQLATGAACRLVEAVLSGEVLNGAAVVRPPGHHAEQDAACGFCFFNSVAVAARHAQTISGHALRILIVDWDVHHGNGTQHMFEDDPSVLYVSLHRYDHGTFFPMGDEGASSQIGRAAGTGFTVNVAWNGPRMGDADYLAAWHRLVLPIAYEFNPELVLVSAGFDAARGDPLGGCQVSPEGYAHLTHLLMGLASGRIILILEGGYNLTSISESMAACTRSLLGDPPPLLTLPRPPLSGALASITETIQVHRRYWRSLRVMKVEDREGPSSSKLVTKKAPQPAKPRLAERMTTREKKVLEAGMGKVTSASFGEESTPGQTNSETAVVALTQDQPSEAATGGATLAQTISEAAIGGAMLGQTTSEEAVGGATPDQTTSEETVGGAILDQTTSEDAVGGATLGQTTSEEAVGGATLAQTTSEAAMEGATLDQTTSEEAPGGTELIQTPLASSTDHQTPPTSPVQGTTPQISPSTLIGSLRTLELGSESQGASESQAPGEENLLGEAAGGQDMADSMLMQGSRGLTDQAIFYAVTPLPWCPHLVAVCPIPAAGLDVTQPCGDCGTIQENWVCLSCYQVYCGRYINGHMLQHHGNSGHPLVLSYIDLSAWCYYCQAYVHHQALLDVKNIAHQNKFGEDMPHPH
Experimental: Confirmation of HDAC Enzyme Activity Inhibition (In Vitro)
as §1

Compound: CN1CC2(C1)CN(C(=S)N(Cc1ccc(-c3nnc(C(F)F)o3)cc1)c1ccc(F)cc1)C2 [Compound 20, N-(4-(5-(difluoromethyl)-1,3,4-oxadiazol-2-yl)benzyl)-N-(4-fluorophenyl)-6-methyl-2,6-diazaspiro[3.3]heptan-2-carbothioamide]
- IC50 (HDAC1): > 10000 nM
- IC50 (HDAC6 human recombinant): 60 nM

Compound: CN1CC2(C1)CN(C(=S)N(Cc1ccc(-c3nnc(C(F)F)o3)cc1F)c1ccc(F)c(Cl)c1)C2 [Compound 25, N-(3-chloro-4-fluorophenyl)-N-(4-(5-(difluoromethyl)-1,3,4-oxadiazol-2-yl)-2-fluorobenzyl)-6-methyl-2,6-diazaspiro[3.3]heptan-2-carbothioamide]
- IC50 (HDAC1): > 10000 nM
- IC50 (HDAC6 human recombinant): 46 nM

Compound: Fc1ccc(N(Cc2ccc(-c3nnc(C(F)F)o3)cc2)C(=S)N2CC3(C2)CN(C2COC2)C3)cc1F [Compound 32, N-(4-(5-(difluoromethyl)-1,3,4-oxadiazol-2-yl)benzyl)-N-(3,4-difluorophenyl)-6-(oxetan-3-yl)-2,6-diazaspiro[3.3]heptan-2-carbothioamide]
- IC50 (HDAC1): > 10000 nM
- IC50 (HDAC6 human recombinant): 45 nM

Compound: CC(C)N1CC2(CN(C(=S)N(Cc3ccc(-c4nnc(C(F)F)o4)cc3F)c3cccc(F)c3)C2)C1 [Compound 37, N-(4-(5-(difluoromethyl)-1,3,4-oxadiazol-2-yl)-2-fluorobenzyl)-N-(3-fluorophenyl)-6-isopropyl-2,6-diazaspiro[3.3]heptan-2-carbothioamide]
- IC50 (HDAC1): > 10000 nM
- IC50 (HDAC6 human recombinant): 67 nM

Compound: Fc1ccc(N(Cc2ccc(-c3nnc(C(F)F)o3)cc2F)C(=S)N2CC3(C2)CN(C2COC2)C3)cc1F [Compound 34, N-(4-(5-(difluoromethyl)-1,3,4-oxadiazol-2-yl)-2-fluorobenzyl)-N-(3,4-difluorophenyl)-6-(oxetan-3-yl)-2,6-diazaspiro[3.3]heptan-2-carbothioamide]
- IC50 (HDAC1): > 10000 nM
- IC50 (HDAC6 human recombinant): 47 nM

Compound: CN1CCC2(CC1)CC(C(=S)N(Cc1ccc(-c3nnc(C(F)F)o3)cc1F)c1ccccc1)C2 [Compound 8, N-(4-(5-(difluoromethyl)-1,3,4-oxadiazol-2-yl)-2-fluorobenzyl)-7-methyl-N-phenyl-7-azaspiro[3.5]nonan-2-carbothioamide]
- IC50 (HDAC1): > 10000 nM
- IC50 (HDAC6 human recombinant): 75 nM

Compound: CN1CC2(C1)CN(C(=S)N(Cc1ccc(-c3nnc(C(F)F)o3)cc1F)c1ccccc1)C2 [Compound 10, N-(4-(5-(difluoromethyl)-1,3,4-oxadiazol-2-yl)-2-fluorobenzyl)-6-methyl-N-phenyl-2,6-diazaspiro[3.3]heptan-2-carbothioamide]
- IC50 (HDAC1): > 10000 nM
- IC50 (HDAC6 human recombinant): 45 nM

Compound: Fc1ccc(N(Cc2ccc(-c3nnc(C(F)F)o3)cc2F)C(=S)N2CC3(COC3)C2)cc1F [Compound 35, N-(4-(5-(difluoromethyl)-1,3,4-oxadiazol-2-yl)-2-fluorobenzyl)-N-(3,4-difluorophenyl)-2-oxa-6-azaspiro[3.3]heptan-6-carbothioamide]
- IC50 (HDAC1): > 10000 nM

Compound: CN1C[C@@H]2C[C@H]1CN2C(=S)N(Cc1ccc(-c2nnc(C(F)F)o2)cc1F)c1ccc(F)c(F)c1 [Compound 42, (1S,4S)—N-(4-(5-(difluoromethyl)-1,3,4-oxadiazol-2-yl)-2-fluorobenzyl)-N-(3,4-difluorophenyl)-5-methyl-2,5-diazabicyclo[2.2.1]heptan-2-carbothioamide]
- IC50 (HDAC1): > 10000 nM

Compound: Fc1cc(-c2nnc(C(F)F)o2)ccc1CN(C(=S)N1CCOCC1)c1ccccc1 [Compound 1, N-(4-(5-(difluoromethyl)-1,3,4-oxadiazol-2-yl)-2-fluorobenzyl)-N-phenylmorpholin-4-carbothioamide]
- IC50 (HDAC1): > 10000 nM

Compound: CN1CCN(C(=S)N(Cc2ccc(-c3nnc(C(F)F)o3)cc2F)c2ccccc2)CC1 [Compound 7, N-(4-(5-(difluoromethyl)-1,3,4-oxadiazol-2-yl)-2-fluorobenzyl)-4-methyl-N-phenylpiperazin-1-carbothioamide]
- IC50 (HDAC1): > 10000 nM
